From US11191850B2, “Molecular probes for detection and imaging of pancreatic cancer” (Portland State University, priority 2016, dated 2021)
“And” between values parts separate entries of the source, which are not always exact repeats. Identical values can stand only once. Values belong to the compound of their own block, whether it stands above or below them.

What was measured:
[1] = pKa of ionizable fluorophores (pH sensitivity screening); format: physicochemical; conditions: aqueous solutions with 10% DMSO
Description: (§1) Probes 1-13 were screened for pH and solvent sensitivity. Solvent sensitivity or dependence is at least partially attributable to differences in the equilibria between tautomeric forms of the compounds in the various solvents evaluated. The fluorophore concentrations ranged from 10-15 μM. Aqueous solutions contained 10% DMSO and 12.5 mM HCl, 12.5 mM NaOH, or pH 7.4 phosphate buffer.

[2] = UV-Vis absorption and fluorescence spectroscopy; format: physicochemical; design: Brightness: unit not given here; conditions: for pH and solvent sensitivity of UV and fluorescence spectra: 10-15 μM, aqueous 10% DMSO with HCl, NaOH or pH 7.4 buffer, various solvents; for Extinction coefficient / λmax abs: 10% DMSO
Source text: UV-Vis absorption and fluorescence spectroscopy. UV-Vis spectra were collected with a Cary 50 UV-Vis spectrophotometer at room temperature, using a 1-cm quartz cuvette. Fluorescence spectra were collected on a Cary Eclipse fluorescence spectrophotometer (Agilent Technologies). All absorbance spectra were reference corrected. Fluorescence spectra were corrected for the wavelength dependent response of the R928 photomultiplier tube using a manufacturer generated correction file. Quantum yields are reported as the average of multiple measurements using multiple references. Excitation emission matrices (EEMs) were collected over various spectral regions, using 5-nm step sizes for emission and 10-nm step sizes for excitation. The band pass for excitation and emission was 5 to 10 nm.
as §1

[3] = acidic solution pH 1.9, HCl, excited at 480 nm or 510 nm
[4] = conjugate base, basic solution pH 12.1, NaOH
[5] = conjugate base, pH 12.1, NaOH, excited at 630 nm
[6] = pH 7.4 phosphate buffer, methyl ether derivatives
[7] = pH 7.4 buffer, excited at 480 nm
[8] = pH 7.4 buffer, methyl ether derivatives
[9] = basic solution pH 12.1, NaOH, 15 μM
[10] = conjugate acid, acidic solution pH 1.9, HCl, 15 μM
[11] = pH 7.4 buffer, excited at 630 nm
[12] = pH 7.4 buffer, seminaphthorhodamines
[13] = pH 7.4 phosphate buffer, seminaphthorhodamines

SMILES: COC(=O)c1ccccc1-c1c2ccc(=N)cc-2oc2c1ccc1cccc(O)c12.Cl [Compound 3, 1-hydroxy-7-(2-(methoxycarbonyl)phenyl)-10H-benzo[c]xanthen-10-iminium chloride]
pKa ([1]; Table 1): 6.67 +/− 0.11
pH and solvent sensitivity of UV and fluorescence spectra [2]: exhibit pH as well as solvent sensitivity
Brightness ([2]; acidic solution pH 1.9, HCl): 226
Stokes shift ([2]; acidic solution pH 1.9, HCl): 62 nm
Extinction coefficient ([2]; acidic solution pH 1.9, HCl): 19787 M⁻¹ cm⁻¹
λmax abs ([2]; acidic solution pH 1.9, HCl): 542 nm
Quantum yield [2, 3]: 1.14%
λmax em [2, 3]: 604 nm
Extinction coefficient [2, 4]: 15589 M⁻¹ cm⁻¹
λmax abs [2, 4]: 621 nm
Brightness ([2]; conjugate base, pH 12.1, NaOH): 17
Stokes shift ([2]; conjugate base, pH 12.1, NaOH): 149 nm
Quantum yield [2, 5]: 0.11%
λmax em [2, 5]: 770 nm

SMILES: COC(=O)c1ccccc1-c1c2ccc(=N)cc-2oc2c1ccc1cccc(OC)c12.O=C(O)O [Compound 4, 1-methoxy-7-(2-(methoxycarbonyl)phenyl)-10H-benzo[c]xanthen-10-iminium bicarbonate]
pH and solvent sensitivity of UV and fluorescence spectra [2]: insensitive to variations in pH or solvent
Extinction coefficient [2, 6]: 21742 M⁻¹ cm⁻¹

SMILES: COC(=O)c1ccccc1-c1c2ccc(=[N+](C)C)cc-2oc2c1ccc1cccc(O)c12 [Compound 5, N-(1-hydroxy-7-(2-(methoxycarbonyl)phenyl)-10H-benzo[c]xanthen-10-ylidene)-N-N-dimethyl iminium bicarbonate]
pH and solvent sensitivity of UV and fluorescence spectra [2]: exhibit pH as well as solvent sensitivity
Extinction coefficient ([2]; acidic solution pH 1.9, HCl): 20399 M⁻¹ cm⁻¹
Extinction coefficient [2, 4]: 17252 M⁻¹ cm⁻¹
λmax abs [2, 4]: 632 nm
Brightness ([2]; conjugate base, pH 12.1, NaOH): 29
Stokes shift ([2]; conjugate base, pH 12.1, NaOH): 148 nm
Quantum yield [2, 5]: 0.17%
λmax em [2, 5]: 780 nm

SMILES: COC(=O)c1ccccc1C1=c2cc3c4c(c2Oc2c1ccc1cccc(O)c21)CCC[N+]=4CCC3 [Compound 11, 15-hydroxy-9-(2-(methoxycarbonyl)phenyl)-1,2,3,5,6,7-hexahydrobenzo[7,8]chromeno[2,3-f]pyrido[3,2,1-ij]quinolin-4-ium chloride]
pKa ([1]; Table 1): 7.84 +/− 0.11
pH and solvent sensitivity of UV and fluorescence spectra [2]: exhibit pH as well as solvent sensitivity
Brightness ([2]; acidic solution pH 1.9, HCl): 2314
Stokes shift ([2]; acidic solution pH 1.9, HCl): 39 nm
Extinction coefficient ([2]; acidic solution pH 1.9, HCl): 15134 M⁻¹ cm⁻¹
λmax abs ([2]; acidic solution pH 1.9, HCl): 585 nm
Quantum yield [2, 3]: 15.29%
λmax em [2, 3]: 624 nm
Extinction coefficient [2, 4]: 14454 M⁻¹ cm⁻¹
λmax abs [2, 4]: 643 nm
Brightness ([2]; conjugate base, pH 12.1, NaOH): 43
Stokes shift ([2]; conjugate base, pH 12.1, NaOH): 127 nm
Quantum yield [2, 5]: 0.30%
λmax em [2, 5]: 770 nm

Further lines, with some results ahead:

Quantum yield [2, 7]: 9.32%
λmax em [2, 7]: 606 nm
Brightness [2, 8]: 2094
Stokes shift [2, 8]: 38 nm
Extinction coefficient [2, 6]: 22470 M⁻¹ cm⁻¹
λmax abs [2, 6]: 568 nm
SMILES: COC(=O)c1ccccc1-c1c2ccc(=[N+](C)C)cc-2oc2c1ccc1cccc(OC)c12.[Cl-] [Compound 6, N-(1-methoxy-7-(2-(methoxycarbonyl)phenyl)-10H-benzo[c]xanthen-10-ylidene)-N-methylmethanaminium chloride]
pH and solvent sensitivity of UV and fluorescence spectra [2]: insensitive to variations in pH or solvent

Extinction coefficient [2, 9]: 5664 M⁻¹ cm⁻¹ and 8300 M⁻¹ cm⁻¹
Extinction coefficient [2, 10]: 3996 M⁻¹ cm⁻¹
λmax abs [2, 10]: 598 nm
Stokes shift ([2]; conjugate acid, pH 1.9, HCl): 172 nm
λmax em ([2]; conjugate acid, pH 1.9, HCl): 770 nm
SMILES: COC(=O)c1ccccc1-c1c2ccc(=O)cc-2oc2c1ccc1cccc(N)c12 [Compound 7, methyl 2-(1-amino-10-oxo-10H-benzo[c]xanthen-7-yl)benzoate]
pH and solvent sensitivity of UV and fluorescence spectra [2]: not affected by either solvent changes or by solution pH values above 2

pKa ([1]; Table 5): 4.36 +/− 0.04
Stokes shift ([2]; basic solution pH 12.1, NaOH): 21 nm
λmax em ([2]; basic solution pH 12.1, NaOH): 530 nm
Extinction coefficient [2, 9]: 8834 M⁻¹ cm⁻¹
λmax abs [2, 9]: 530 nm
Extinction coefficient [2, 10]: 10132 M⁻¹ cm⁻¹
λmax abs [2, 10]: 480 nm
Stokes shift ([2]; conjugate acid, pH 1.9, HCl): 100 nm
λmax em ([2]; conjugate acid, pH 1.9, HCl): 580 nm
SMILES: COC(=O)c1ccccc1-c1c2ccc(=O)cc-2oc2c1ccc1cccc(N(C)C)c12 [Compound 8, methyl 2-(1-(dimethylamino)-10-oxo-10H-benzo[c]xanthen-7-yl)benzoate]
pH and solvent sensitivity of UV and fluorescence spectra [2]: not affected by either solvent changes or by solution pH values above 2

Quantum yield [2, 11]: 0.18%
λmax em [2, 11]: 760 nm
Brightness [2, 12]: 25
Stokes shift [2, 12]: 184 nm
Extinction coefficient [2, 13]: 13872 M⁻¹ cm⁻¹
λmax abs [2, 13]: 576 nm
SMILES: COC(=O)c1ccccc1-c1c2ccc(=N)cc-2oc2c1ccc1cccc(N)c12.Cl [Compound 9, 1-amino-7-(2-(methoxycarbonyl)phenyl)-10H-benzo[c]xanthen-10-iminium chloride]
pH and solvent sensitivity of UV and fluorescence spectra [2]: not pH dependent, but were modestly solvent sensitive
